{"source": "patent US8227508B2", "about": "“Dietary and pharmaceutical compositions containing carnosol and/or rosmanol and their uses” (DSM IP Assets B.V., priority 2006, dated 2012)", "key": {"[1]": {"target": "T1, human noradrenaline transporter (hNAT) (Homo sapiens, UniProt P23975)", "T1 construct": "expressed in transfected cells; host or cells: MDCK", "T1 sequence (P23975 whole entry)": "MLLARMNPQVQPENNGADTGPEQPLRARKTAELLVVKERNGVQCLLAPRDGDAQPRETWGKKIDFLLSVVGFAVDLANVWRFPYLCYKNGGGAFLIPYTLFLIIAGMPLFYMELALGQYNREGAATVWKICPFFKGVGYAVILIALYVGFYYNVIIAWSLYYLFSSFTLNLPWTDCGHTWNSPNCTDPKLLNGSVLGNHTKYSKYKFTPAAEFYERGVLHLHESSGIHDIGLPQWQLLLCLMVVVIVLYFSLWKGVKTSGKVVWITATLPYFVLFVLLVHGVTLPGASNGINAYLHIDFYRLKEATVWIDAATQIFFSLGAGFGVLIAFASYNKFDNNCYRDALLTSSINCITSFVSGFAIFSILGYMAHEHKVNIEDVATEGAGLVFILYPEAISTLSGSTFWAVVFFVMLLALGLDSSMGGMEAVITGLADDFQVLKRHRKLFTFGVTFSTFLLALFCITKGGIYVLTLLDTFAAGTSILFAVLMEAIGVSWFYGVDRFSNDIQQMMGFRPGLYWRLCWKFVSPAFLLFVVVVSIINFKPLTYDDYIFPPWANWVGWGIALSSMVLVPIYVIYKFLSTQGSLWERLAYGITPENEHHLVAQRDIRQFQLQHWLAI", "experiment": "Noradrenaline uptake inhibition in MDCK cells expressing hNAT", "format": "cell-based", "method": "Madin Darby canine kidney (MDCK) cells, stably expressing the human noradrenaline transporter (hNAT), were plated one day before the assay. […] Cells in each well were then rinsed twice, solubilised with 1% SDS lysis buffer and the lysate was analysed to determine [^3H]-noradrenaline uptake. […] Reduction of [^3H]-noradrenaline uptake by 50 percent or more (≧50%) relative to vehicle controls indicated significant inhibitory activity."}, "[2]": {"target": "T2, human calcitonin gene-related peptide (hCGRP) receptor (Homo sapiens, UniProt O60894+Q16602)", "T2 construct": "expressed in transfected cells; host or cells: CHO (membrane homogenates)", "T2 sequence (Q16602 23-461)": "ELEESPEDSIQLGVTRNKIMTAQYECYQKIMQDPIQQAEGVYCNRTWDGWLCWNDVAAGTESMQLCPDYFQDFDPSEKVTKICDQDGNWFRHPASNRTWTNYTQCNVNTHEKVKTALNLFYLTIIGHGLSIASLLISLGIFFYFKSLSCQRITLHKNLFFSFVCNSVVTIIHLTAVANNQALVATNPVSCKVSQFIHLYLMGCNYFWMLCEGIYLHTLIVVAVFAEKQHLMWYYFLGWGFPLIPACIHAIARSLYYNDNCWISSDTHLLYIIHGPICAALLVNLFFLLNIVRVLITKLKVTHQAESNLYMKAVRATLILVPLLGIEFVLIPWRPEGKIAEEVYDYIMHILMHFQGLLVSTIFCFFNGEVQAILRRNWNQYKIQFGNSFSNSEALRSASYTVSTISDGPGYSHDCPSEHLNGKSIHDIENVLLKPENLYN", "T2 sequence (O60894 27-148)": "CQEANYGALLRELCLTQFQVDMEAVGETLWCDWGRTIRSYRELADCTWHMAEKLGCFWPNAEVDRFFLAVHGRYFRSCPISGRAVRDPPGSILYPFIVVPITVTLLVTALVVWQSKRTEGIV", "experiment": "CGRP receptor radioligand binding assay", "conditions": "0.03 nM [125I]h-CGRPα, CHO cell membranes, read-out: percentage inhibition of control radioligand specific binding to hCGRP receptor", "method": "The effect of carnosol on the agonist site of the human calcitonin gene-related peptide (hCGRP) receptor in transfected CHO cells was investigated using a radioligand binding assay adapted from that described by Aiyar et al. (1996, J. Biol. Chem., 271: 11325-11329).\nBriefly, cell membrane homogenates (10 μg protein) were incubated for 90 min at 22° C. with 0.03 nM [^125I]h-CGRPα in the absence or presence of carnosol (10 μM) in a buffer containing 50 mM HEPES-NaOH (pH 7.4), 10 mM MgCl2, 4 mM KCl, 10 mM NaCl, 1 mM EDTA, 1 μM phosphoramidon, 0.3% BSA and 0.04% bacitracine. Non-specific binding was determined in the presence of 1 μM h-CGRPα. Following incubation, the samples were filtered rapidly under vacuum through glass fibre filters (GF/B, Packard) pre-soaked with 0.3% polyethyleneimine (PEI) and rinsed several times with ice-cold 50 mM Tris-HCl using a 96-sample cell harvester (Unifilter, Packard). The filters were dried then counted for radioactivity in a scintillation counter (Topcount, Packard) using a scintillation cocktail (Microscint 0, Packard). The results are expressed as percentage inhibition of the control radioligand specific binding. The standard reference compound used was h-CGRPα, the natural agonist of the hCGRP receptor."}, "[3]": {"target": "human recombinant acetylcholinesterase (Homo sapiens, UniProt P22303)", "sequence (P22303 32-614)": "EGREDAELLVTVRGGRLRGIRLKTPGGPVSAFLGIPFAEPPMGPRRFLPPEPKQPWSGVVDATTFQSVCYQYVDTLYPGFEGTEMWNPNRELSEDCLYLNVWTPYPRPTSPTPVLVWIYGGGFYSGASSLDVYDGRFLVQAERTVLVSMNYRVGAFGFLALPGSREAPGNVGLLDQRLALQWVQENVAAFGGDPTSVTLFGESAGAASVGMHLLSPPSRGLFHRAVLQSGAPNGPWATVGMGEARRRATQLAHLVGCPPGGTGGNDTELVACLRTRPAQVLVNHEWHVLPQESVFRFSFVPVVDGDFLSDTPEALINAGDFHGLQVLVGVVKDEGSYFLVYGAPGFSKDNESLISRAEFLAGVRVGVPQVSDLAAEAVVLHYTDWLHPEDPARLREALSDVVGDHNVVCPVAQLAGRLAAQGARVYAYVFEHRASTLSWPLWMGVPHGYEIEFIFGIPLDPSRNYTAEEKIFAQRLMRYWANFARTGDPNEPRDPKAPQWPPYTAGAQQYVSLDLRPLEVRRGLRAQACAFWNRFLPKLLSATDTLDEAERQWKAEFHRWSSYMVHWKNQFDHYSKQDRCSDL", "experiment": "Acetylcholinesterase inhibition (Ellman method)", "format": "biochemical", "conditions": "substrate AMTCh 50 μM, read-out: percentage inhibition of acetylcholinesterase activity", "method": "The effect of carnosol on human recombinant acetylcholinesterase activity was quantified by measuring the formation of 5-thio-2-nitrobenzoic acid from acetyl-6-methylthiocholine (AMTCh), as adapted from Ellman et al. (1961, Biochem. Pharmacol., 7: 88-90). Briefly, carnosol (10 μM), reference compound or water (control) were added to a buffer containing 200 mM NaH2PO4/Na2HPO4 (pH 8.0), 5 mg/ml (NH4)2SO4, 0.4 mM DTNB and 5 mU enzyme. The enzymatic reaction was then initiated by the addition of the substrate AMTCh at 50 μM. The absorbance was measured immediately (t=0) at λ=405 nm using a microplate reader (MRX, Dynatech or Ultra, Tecan). This measurement was used to detect any compound interference with the spectrophotometric detection at this wavelength. After 30 min incubation at 37° C. (t=30), a second measurement of the absorbance was made at λ=405 nm. The enzyme activity was determined by subtracting the signal measured at t=0 from that measured at t=30. The results are expressed as percentage inhibition of the control enzyme activity. The standard inhibitory reference compound used was neostigmine, tested in each experiment at several concentrations to obtain an inhibition curve from which its IC50 value was calculated."}, "[4]": {"target": "T3, human dopamine transporter (hDAT) (Homo sapiens, UniProt Q01959)", "T3 construct": "expressed in transfected cells; host or cells: CHO-K1", "T3 sequence (Q01959 whole entry)": "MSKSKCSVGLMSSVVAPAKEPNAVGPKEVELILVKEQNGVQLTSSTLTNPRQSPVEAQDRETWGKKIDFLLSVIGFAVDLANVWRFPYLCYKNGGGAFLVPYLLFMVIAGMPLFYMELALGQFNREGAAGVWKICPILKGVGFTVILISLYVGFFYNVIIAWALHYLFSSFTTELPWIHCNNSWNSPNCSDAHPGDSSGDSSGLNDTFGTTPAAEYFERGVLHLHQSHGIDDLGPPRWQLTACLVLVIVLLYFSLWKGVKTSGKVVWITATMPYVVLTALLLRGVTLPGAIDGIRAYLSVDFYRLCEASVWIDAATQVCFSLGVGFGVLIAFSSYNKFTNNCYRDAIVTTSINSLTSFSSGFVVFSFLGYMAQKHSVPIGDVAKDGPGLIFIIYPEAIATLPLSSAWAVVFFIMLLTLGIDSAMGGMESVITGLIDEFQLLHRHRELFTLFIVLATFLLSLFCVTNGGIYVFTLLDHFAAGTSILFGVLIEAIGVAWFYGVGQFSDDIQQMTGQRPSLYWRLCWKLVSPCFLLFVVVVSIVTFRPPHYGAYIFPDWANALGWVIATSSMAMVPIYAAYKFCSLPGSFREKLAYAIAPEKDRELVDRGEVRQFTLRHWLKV", "experiment": "cell-based", "conditions": "transfected CHO-K1 cells, 50 nM [3H]-dopamine; read-out: IC50, inhibition of dopamine reuptake", "method": "Specific signal was determined in the presence of 10 μM nomifensine (dopamine reuptake inhibitor). Cells were then solubilised with 1% SDS lysis buffer."}, "mouse": {"test_system": "mouse", "experiment": "Four Plates Test", "format": "in vivo", "conditions": "−5 h and −1 h", "from_the_text": "The method, which detects anxiolytic activity, follows that described by Aron et al (1971, Neuropharmacology, 10:459-469). Anxiolytics (benzodiazepines) increase the number of punished crossings. Animals were placed individually in a white plastic enclosure containing a floor consisting of 4 metal plates connected to an electric shock generator (Apelex: type 011346). Each mouse was left to explore freely for 15 seconds. Then, every time it crossed from one plate to another, it received a weak electric shock (2.5 mA, 1.5 s). The number of punished crossings was counted during a 1 minute test. 15 mice were studied per group. The test was performed blind.\nCarnosol was evaluated at 3 doses (200, 400, 600 mg/kg), administered p.o. 24 h, 5 h and 1 h before the test, and compared with a vehicle control (corn oil) group.\nClobazam (32 mg/kg p.o.), administered 1 h before the test, was used as reference substance. Mice in this group received additional administrations of vehicle at 24 h and 5 h before the test in order to maintain experimental blinding."}}, "data": [{"compound": "CC(C)c1cc2c(c(O)c1O)[C@@]13CCCC(C)(C)[C@@H]1C[C@@H]2OC3=O", "note": "[Carnosol, carnosol]", "values": [{"measurement": "IC50", "setting": "[1]", "result": 30.6, "unit": "µM"}, {"measurement": "inhibition at 10 µM", "setting": "[2]", "result": 54, "unit": "%"}, {"measurement": "inhibition at 10 µM", "setting": "[3]", "result": 53, "unit": "%"}, {"measurement": "IC50", "setting": "[4]", "result": 10.3, "unit": "µM"}, {"measurement": "Number of punished crossings, mean", "setting": "mouse; 200 mg/kg p.o. −24 h", "result": 3.5}, {"measurement": "Number of punished crossings, mean", "setting": "mouse; 400 mg/kg p.o. −24 h", "result": 3.7}, {"measurement": "Number of punished crossings, mean", "setting": "mouse; 600 mg/kg p.o. −24 h", "result": 3.1}]}]}
